# Data from PMC9252919, “Controlled masking and targeted release of redox-cycling ortho-quinones via a C–C bond-cleaving 1,6-elimination” (Nature Chemistry, 2022).
# What was measured:
# CD33+ HL-60 cells = assay: Viability assay with small-molecule prodrugs and ADCs, HL-60; format: cell-based, human; details: Homo sapiens, read-out: IC50 against CD33+ HL-60 cells
# Method: (§1) For assays assessing cytotoxicity of β-lapachone versus small-molecule prodrugs, antibodies and ADCs, suspension cells were plated into 24-well plates at a density of 2.5 × 10^5 cells ml^−1 in 240 µl. Stocks of ADC or antibody in PBS were normalized to 12.5 µM. Serial dilutions of compound were made up in PBS. Then, 60 µl of each stock of either PBS or compound in PBS was added to the cells to achieve the desired final concentration. After the specified incubation time, toxicity was assessed by counting of live cells using the trypan blue exclusion method with a Countess II Automated Cell Counter (ThermoFisher Scientific) according to the manufacturer’s instructions. Cell viability was determined by dividing the average live cell number of treated wells by the average live cell number for control wells treated with PBS only. IC50 values were calculated using GraphPad Prism software. Note: for the assay performed over 96 h, 5% human serum was added to media instead of 10% fetal bovine serum, to limit non-specific antibody internalisation. This had little effect on ADC toxicity.
# [1] = Quantitative LC-MS/MS of β-lapachone in xenograft mouse tumour; format: in vivo, NOD-SCID mice; details: fixed tumour homogenate of mice treated with ADC Gem-HC-239iC-BL
# Method: Concentrations of β-lapachone in formalin-fixed tumour and the respective formol supernatant were quantified using reversed-phase ultra-high-performance liquid chromatography tandem mass spectrometry as previously described. Care was taken during sample handling to minimize exposure to light, and amber glass/plastic and foil wrapping were used where possible. Tumour tissue was homogenized to a concentration of 200 mg ml^−1 with PBS. An aliquot of homogenate or formol supernatant sample was transferred to a fresh tube with cryptotanshinone (internal standard) in ethyl acetate for liquid–liquid extraction. Samples were mixed, centrifuged and the ethyl acetate layer transferred to a 96-well plate, evaporated and reconstituted in 0.1% formic acid in acetonitrile:water 70:30. PBS was used as the surrogate matrix for calibration standards and quality-control samples. The calibration ranges were 0.25–250 ng g^−1 (homogenate) and 0.05–50 ng ml^−1 (formol). The analytical batches included quality-control samples at low, medium and high concentrations. The analysis was performed on a Shimadzu Nexera X2 UHPLC coupled to a Sciex TripleTOF 6600 mass spectrometer. The extracted samples were injected onto a Phenomenex Kinetex EVO C18, 1.7 µm, 50 × 2.1 mm analytical column, at 35 °C. […]
# AML cell line MOLM-13 = assay: Viability assay with small-molecule prodrugs, MOLM-13; format: cell-based; details: 5 µM, 24 h
# Method: as §1
# HL-60 cells [2] = assay: Lysosomal deacidification and inhibition assay; format: cell-based, human; details: HL-60, NH4Cl 30 mM
# Method: Assays to assess the effect of lysosomal activity on prodrugs were performed as follows: HL-60 cells were plated into 96-well plates at a concentration of 2.5 × 10^5 cells ml^−1 in 180 µl media. Cells were treated with 10 µl of a stock of NH4Cl in PBS (to obtain an in-plate concentration of 3 or 30 mM), 10 µl of a dilution of a DMSO stock of E64d in PBS (to obtain an in-plate concentration of 30 μM), PBS only or a dilution of DMSO in PBS. Cells were incubated for 30 min. Following this, 10 µl of a stock of test compound made by dilution of a DMSO stock into media was added. DMSO was present in-plate at a maximum of 0.2%. Cells were incubated overnight for 16 h. Following incubation, media was replaced with media containing CellTiter-Blue (Promega) in 1:4 dilution and the plates were incubated for 6 h. The fluorescence of the plates was recorded (excitation, 555 nm; emission, 585 nm; MiniMax i3x Reader, Molecular Devices). Cell viability was calculated by division of the fluorescence intensity of treated wells by that of the average fluorescence intensity of the relevant negative control wells.
# [3] = test system: range of cancer cell lines, including leukaemia, breast, colon and cervical cancer; assay: Viability assay (CellTiter-Blue) with small-molecule lapachone models; format: cell-based; details: 48 h
# Method: Assays assessing cytotoxicity of β-lapachone and derivatives were performed by CellTiter-Blue assay (Promega) according to the manufacturer’s instructions. Briefly, adherent cancer-cell lines were plated at 20,000 cells per well in 96-well plates or suspension cell lines were plated at a concentration of 2 × 10^5 cells ml^−1 in 24-well plates. Compound stocks in media were made by dilution of DMSO stocks containing the compound of interest to obtain a final in-plate DMSO concentration of only 0.1%. Incubation was performed for 48 h. Following incubation, media was replaced with media containing CellTiter-Blue (Promega) in 1:10 dilution and the plates were incubated for 1.5–4 h. The fluorescence of the plates was recorded (excitation, 555 nm; emission, 585 nm; MiniMax i3x Reader, Molecular Devices). Cell viability was calculated by division of the fluorescence intensity of treated wells by that of the calculated average fluorescence intensity of replicate negative control wells containing cells with 0.1% DMSO only. IC50 values were calculated using GraphPad Prism 8 software.
# HL-60 cells [4] = assay: Cellular ROS detection with 2',7'-dichlorodihydrofluorescein diacetate; format: cell-based, human; details: 50 µM, 15 min
# Method: To determine ROS generation by compounds in leukaemia cells, HL-60 cells were washed with PBS, then incubated in serum-free media (10 ml of 1.6 × 10^6 ml^−1 cell concentration) with 2,7-dichlorofluorescin diacetate at 20 µM for 30 min at 37 °C. Following this, the cells were washed with PBS and resuspended in Fluorbrite–DMEM media (ThermoFisher) (10 ml). Then, 450 µl of the cell mixture was seeded into wells of a clear flat-bottomed 12-well plate, to which 50 µl of a 10× stock of the compounds in media had been already added, to achieve a final compound concentration of 50 µM. The 10× media stocks were made by 100-fold dilution of DMSO compound stocks, to ensure a final in-plate DMSO concentration of 0.1%. DMSO 0.1% only was used as a negative control. […] After plating the cells were immediately incubated at 37 °C in the dark for 15 min before the fluorescence of the wells (excitation, 485 nm; emission, 535 nm) was recorded (MiniMax i3x Imager, Molecular Devices).
SMILES,IC50 (CD33+ HL-60 cells) [nM],concentration of 1 in tumour tissue [1] [ng/g],toxicity to MOLM-13 at 5 µM (AML cell line MOLM-13),toxicity with NH4Cl at 30 mM (HL-60 cells [2]),decrease in toxicity relative to 1 [3] [fold],ROS generation in HL-60 (HL-60 cells [4])
"CC1(C)CCC2=C(O1)c1ccccc1C(=O)C2=O [Compound 1, β-lapachone, reference compound]",~1000,0.327,complete cell death,increase in toxicity,,
"CC1(C)CCC2=C(O1)c1ccccc1C(O)(Cc1ccccc1)C2=O (stereo not drawn) [Compound 24, benzyl β-lapa-ketol]",,,,,> 20,did not generate detectable ROS
